Tests used:
[1] = test system: TNFα release from human peripheral blood mononuclear cells; assay: Inhibition of TNFα release from LPS-stimulated human peripheral blood mononuclear cells (TNFα screen); format: cell-based; conditions: 18 hours incubation, TNFα in supernatant by ELISA
Method: Venous blood is collected from healthy volunteers and the mononuclear cells purified by centrifugation through Histopaque (Ficoll) cushions. TNFα production from these cells is stimulated by addition of lipopolysaccharide. After 18 hours incubation in the presence of LPS, the cell supernatant is removed and the concentration of TNFα in the supernatant determined by ELISA.
(§1) Data are presented below for the Examples in which the TNFα and PDE4 inhibition are presented as IC50 values in nM.

[2] = test system: PDE4; assay: PDE4 inhibition: hydrolysis of tritium labelled cAMP to AMP, SPA bead scintillation counting; format: biochemical; conditions: tritium labelled cAMP incubated with PDE4, yttrium silicate SPA beads
Method: The PDE4 inhibitory activity of the nicotinamide derivatives of the formula (I) is determined by the ability of compounds to inhibit the hydrolysis of cAMP to AMP by PDE4 (Thompson J W, Teraski W L, Epstein P M, Strada S J., “Assay of nucleotidephosphodiesterase and resolution of multiple molecular forms of the isoenzyme”, Advances in cyclic nucleotides research, edited by Brooker G, Greengard P, Robinson G A. Raven Press, New York 1979, 10, p. 69-92). Tritium labelled cAMP is incubated with PDE4. Following incubation, the radiolabelled AMP produced is able to bind yttrium silicate SPA beads. These SPA beads subsequently produce light that can be quantified by scintillation counting. The addition of a PDE4 inhibitor prevents the formation of AMP from cAMP and counts are diminished. The IC50 of a PDE4 inhibitor can be defined as the concentration of a compound that leads to a 50% reduction in counts compared to the PDE4 only (no inhibitor) control wells.
as §1

| Structure (SMILES) | IC50 ([1]; PBMC) [pM] | IC50 [1] [pM] | IC50 [2] [pM] |
| --- | --- | --- | --- |
| O=C(N[C@H]1CC[C@@H](NC(=O)c2cc(Cl)cc(Cl)c2O)CC1)c1cc(F)cnc1OC1CCSCC1 [Example 26, Syn-N-[4-(3,5-Dichloro-2-hydroxy-benzoylamino)-cyclohexyl]-5-fluoro-2-(tetrahydro-thiopyran-4-yloxy)-nicotinamide] |  | 14000 |  |
| Cc1cc(C(=O)N[C@H]2CC[C@@H](NC(=O)c3cc(F)cnc3OC3CCSCC3)CC2)c2cc(O)ccc2n1 [Example 31, Syn-6-Hydroxy-2-methyl-quinoline-4-carboxylic acid (4-{[5-fluoro-2-(tetrahydro-thiopyran-4-yloxy)-pyridine-3-carbonyl]-amino}-cyclohexyl)-amide] | 1000 |  |  |
| Cc1cc(C(=O)N[C@H]2CC[C@@H](NC(=O)c3cc(F)cnc3OC3CCSCC3)CC2)nn1C [Example 42] | 20 |  | 300 |
| O=C(N[C@H]1CC[C@@H](NC(=O)c2cccn3c(CO)cnc23)CC1)c1cc(F)cnc1OC1CCSCC1 [Example 51, Syn-3-Hydroxymethyl-imidazo[1,2-a]pyridine-8-carboxylic acid (4-{[5-fluoro-2-(tetrahydro-thiopyran-4-yloxy)-pyridine-3-carbonyl]-amino}-cyclohexyl)-amide] | 100 |  |  |
| Cc1cc(C(=O)N[C@H]2CC[C@@H](NC(=O)c3cc(F)cnc3OC3CCSCC3)CC2)nn1CCO [Example 52, Syn-5-Fluoro-N-(4-{[1-(2-hydroxy-ethyl)-5-methyl-1H-pyrazole-3-carbonyl]-amino}-cyclohexyl)-2-(tetrahydro-thiopyran-4-yloxy)-nicotinamide] | 30 |  |  |
| O=C(N[C@H]1CC[C@@H](NC(=O)c2nn(CCO)c3ccccc23)CC1)c1cc(F)cnc1OC1CCSCC1 [Example 53, Syn-1-(2-Hydroxy-ethyl)-1H-indazole-3-carboxylic acid (4-{[5-fluoro-2-(tetrahydro-thiopyran-4-yloxy)-pyridine-3-carbonyl]-amino}-cyclohexyl)-amide] | 10 |  |  |
| CCc1cc(C(=O)N[C@H]2CC[C@@H](NC(=O)c3cc(F)cnc3OC3CCSCC3)CC2)nn1CCO [Example 54, Syn-N-(4-{[5-Ethyl-1-(2-hydroxy-ethyl)-1H-pyrazole-3-carbonyl]-amino}-cyclohexyl)-5-fluoro-2-(tetrahydro-thiopyran-4-yloxy)-nicotinamide] | 100 |  |  |
| CCc1cc(C(=O)N[C@H]2CC[C@@H](NC(=O)c3cc(F)cnc3OC3CCSCC3)CC2)n(CCO)n1 [Example 55, Syn-N-(4-{[5-Ethyl-2-(2-hydroxy-ethyl)-2H-pyrazole-3-carbonyl]-amino}-cyclohexyl)-5-fluoro-2-(tetrahydro-thiopyran-4-yloxy)-nicotinamide] | 17000 |  |  |
| CC(C)c1cc(C(=O)N[C@H]2CC[C@@H](NC(=O)c3cc(F)cnc3OC3CCSCC3)CC2)n(CCO)n1 [Example 56, Syn-5-Fluoro-N-(4-{[2-(2-hydroxy-ethyl)-5-isopropyl-2H-pyrazole-3-carbonyl]-amino}-cyclohexyl)-2-(tetrahydro-thiopyran-4-yloxy)-nicotinamide] | 20000 |  |  |
| CC(C)c1cc(C(=O)N[C@H]2CC[C@@H](NC(=O)c3cc(F)cnc3OC3CCSCC3)CC2)nn1CCO [Example 57, Syn-5-Fluoro-N-(4-{[1-(2-hydroxy-ethyl)-5-isopropyl-1H-pyrazole-3-carbonyl]-amino}-cyclohexyl)-2-(tetrahydro-thiopyran-4-yloxy)-nicotinamide] | 70 |  |  |
| Cc1cnc2c(C(=O)N[C@H]3CC[C@@H](NC(=O)c4cc(F)cnc4OC4CCSCC4)CC3)cccn12 [Example 60, Syn-3-Methyl-imidazo[1,2a]pyridine-8-carboxylic acid (4-{[5-fluoro-2-(tetrahydro-thiopyran-4-yloxy)-pyridine-3-carbonyl]-amino}-cyclohexyl)-amide] | 60 |  |  |
| O=C(N[C@H]1CC[C@@H](NC(=O)c2cc(Cl)cnc2OC2CCSCC2)CC1)c1cc(CO)ccc1O [Example 61, Syn-5-Chloro-N-[4-(2-hydroxy-5-hydroxymethyl-benzoylamino)-cyclohexyl]-2-(tetrahydro-thiopyran-4-yloxy)-nicotinamide] | 3000 |  |  |
| Cc1cnc(OC2CCSCC2)c(C(=O)N[C@H]2CC[C@@H](NC(=O)c3cc(CO)ccc3O)CC2)c1 [Example 62, Syn-N-[4-(2-Hydroxy-5-hydroxymethyl-benzoylamino)-cyclohexyl]-5-methyl-2-(tetrahydro-thiopyran-4-yloxy)-nicotinamide] | 12000 |  |  |

The next lines start with the values.

| IC50 ([1]; PBMC) [pM] | IC50 [1] [pM] | IC50 [2] [pM] | Structure (SMILES) |
| --- | --- | --- | --- |
| 400 |  |  | O=C(N[C@H]1CC[C@@H](NC(=O)c2cc(F)cnc2OC2CCSCC2)CC1)c1ccc(Cl)cc1O [Example 15, Syn-N-[4-(4-Chloro-2-hydroxy-benzoylamino)-cyclohexyl]-5-fluoro-2-(tetrahydro-thiopyran-4-yloxy)-nicotinamide] |
| 800 |  |  | O=C(N[C@H]1CC[C@@H](NC(=O)c2cc(F)cnc2OC2CCSCC2)CC1)c1cc(F)ccc1O [Example 25, Syn-5-Fluoro-N-[4-(5-fluoro-2-hydroxy-benzoylamino)-cyclohexyl]-2-(tetrahydro-thiopyran-4-yloxy)-nicotinamide] |
| 700 |  |  | O=C(N[C@H]1CC[C@@H](NC(=O)c2cc(F)cnc2OC2CCSCC2)CC1)c1cc(Cl)ccc1O [Example 27, Syn-N-[4-(5-Chloro-2-hydroxy-benzoylamino)-cyclohexyl]-5-fluoro-2-(tetrahydro-thiopyran-4-yloxy)-nicotinamide] |
| 12000 |  |  | Cc1cccc(C(=O)N[C@H]2CC[C@@H](NC(=O)c3cc(F)cnc3OC3CCSCC3)CC2)c1O [Example 28, Syn-5-Fluoro-N-[4-(2-hydroxy-3-methyl-benzoylamino)-cyclohexyl]-2-(tetrahydro-thiopyran-4-yloxy)-nicotinamide] |
| 400 |  |  | O=C(N[C@H]1CC[C@@H](NC(=O)c2cc(F)cnc2OC2CCSCC2)CC1)c1ccccc1O [Example 29, Syn-5-Fluoro-N-[4-(2-hydroxy-benzoylamino)-cyclohexyl]-2-(tetrahydro-thiopyran-4-yloxy)-nicotinamide] |
| 2000 |  |  | O=C(N[C@H]1CC[C@@H](NC(=O)c2cc(O)nc3ccccc23)CC1)c1cc(F)cnc1OC1CCSCC1 [Example 30, Syn-2-Hydroxy-guinoline-4-carboxylic acid (4-{[5-fluoro-2-(tetrahydro-thiopyran-4-yloxy)-pyridine-3-carbonyl]-amino}-cyclohexyl)-amide] |
| 10000 |  |  | O=C(N[C@H]1CC[C@@H](NC(=O)c2ccnc3c(O)cccc23)CC1)c1cc(F)cnc1OC1CCSCC1 [Example 32, Syn-8-Hydroxy-quinoline-4-carboxylic acid (4-{[5-fluoro-2-(tetrahydro-thiopyran-4-yloxy)-pyridine-3-carbonyl]-amino}-cyclohexyl)-amide] |
| 70 |  |  | O=C(N[C@H]1CC[C@@H](NC(=O)c2cccc3cn[nH]c23)CC1)c1cc(F)cnc1OC1CCSCC1 [Example 33, Syn-1H-Indazole-7-carboxylic acid (4-{[5-fluoro-2-(tetrahydro-thiopyran-4-yloxy)-pyridine-3-carbonyl]-amino}-cyclohexyl)-amide] |
| 1000 |  |  | O=C(N[C@H]1CC[C@@H](NC(=O)c2cc(F)cnc2OC2CCSCC2)CC1)c1ccc2cn[nH]c2c1 [Example 34, Syn-1H-Indazole-6-carboxylic acid (4-{[5-fluoro-2-(tetrahydro-thiopyran-4-yloxy)-pyridine-3-carbonyl]-amino}-cyclohexyl)-amide] |
| 1000 |  |  | O=C(N[C@H]1CC[C@@H](NC(=O)c2cc(F)cnc2OC2CCSCC2)CC1)c1ccc(O)cc1O [Example 58, Syn-N-[4-(2,4-Dihydroxy-benzoylamino)-cyclohexyl]-5-fluoro-2-(tetrahydro-thiopyran-4-yloxy)-nicotinamide] |
| 2 |  | 500 | Cc1ccc(C(=O)N[C@H]2CC[C@@H](NC(=O)c3cc(F)cnc3OC3CCSCC3)CC2)c(O)c1 [Example 63, Syn-5-Fluoro-N-[4-(2-hydroxy-4-methyl-benzoylamino)-cyclohexyl]-2-(tetrahydro-thiopyran-4-yloxy)-nicotinamide] |
| 15000 |  |  | Cc1ccc(S(=O)(=O)N[C@H]2CC[C@@H](NC(=O)c3cc(F)cnc3OC3CCSCC3)CC2)cc1 [Example 69, Syn-5-Fluoro-2-(tetrahydro-thiopyran-4-yloxy)-N-[4-(toluene-4-sulfonylamino)-cyclohexyl]-nicotinamide] |
| 2000 |  |  | Cc1ccccc1S(=O)(=O)N[C@H]1CC[C@@H](NC(=O)c2cc(F)cnc2OC2CCSCC2)CC1 [Example 70, Syn-5-Fluoro-2-(tetrahydro-thiopyran-4-yloxy)-N-[4-(toluene-2-sulfonylamino)-cyclohexyl]-nicotinamide] |
|  | 1 |  | O=C(NC1CCC(NS(=O)(=O)c2c(O)ccc3cccnc23)CC1)c1cc(F)cnc1OC1CCSCC1 (stereo not drawn) [Example 72, Syn-5-Fluoro-N-[4-(7-hydroxy-quinoline-8-sulfonylamino)-cyclohexyl]-2-(tetrahydro-thiopyran-4-yloxy)-nicotinamide] |
|  | 30 |  | O=C(NC1CCC(NS(=O)(=O)c2c(O)ccc3cccnc23)CC1)c1cccnc1OC1CCSCC1 (stereo not drawn) [Example 73, Syn-N-[4-(7-hydroxy-quinoline-8-sulfonylamino)-cyclohexyl]-2-(tetrahydro-thiopyran-4-yloxy)-nicotinamide] |
